Measurements reported in ChEMBL document CHEMBL1126845, “N-(carboxymethyl)-N-[3,5-bis(decyloxy)-phenyl]glycine (Ro 23-9358): a potent inhibitor of secretory phospholipases A2 with antiinflammatory activity” (J Med Chem, 1993).

Experiments:
Format in all cases: functional
[1] = biological target: T1, Phospholipase A2, membrane associated (Homo sapiens, UniProt P14555); assay: Tested for inhibitory activity against human synovial fluid PLA2 (HSF-PLA2)
T1 sequence (P14555 whole entry): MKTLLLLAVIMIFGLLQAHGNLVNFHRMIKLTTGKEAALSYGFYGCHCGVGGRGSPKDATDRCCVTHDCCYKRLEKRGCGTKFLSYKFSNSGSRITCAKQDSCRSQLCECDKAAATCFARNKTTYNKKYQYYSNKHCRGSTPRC

Rattus norvegicus [2] = organism: Rattus norvegicus; assay: Paw volume in rat during treatment period
Rattus norvegicus [3] = assay: Paw swelling rats induced by Naja naja venom PLA2 when tested at 30 mg/kg ip; details: route intraperitoneal
[4] = Tested for inhibitory activity against purified recombinant human placental PLA2 (r-hpPLA2)

SMILES | IC50 [1] | Paw volume (Rattus norvegicus [2]) | inhibition in vivo at 30 mg/kg (Rattus norvegicus [3]) | IC50 [4]
CCCCCCCCCCOc1cc(OCCCCCCCCCC)cc(C(=O)O)c1 | 3000 nM |  |  | 
CCCCCCCCCCOc1cc(OCCCCCCCCCC)cc(N(CC(=O)O)CC(=O)O)c1 | 230 nM | 1 mL | 41% | 87 nM
